The values that follow come from the NIST ThermoML archive (doi:10.1016/j.jct.2017.11.017).

Molecules are shown by their SMILES. Numbers after ± are expanded uncertainties.

The series is described as follows: activity coefficient (dimensionless); of the first substance listed, at infinite dilution; xn = mol fraction of the nth substance listed. Conditions: 101.33 kPa, Liquid, Chromatography, x1 = 0.

Take `CCO` [ethanol] + C[N+]1(CCCO)CCOCC1.N#C[N-]C#N: the activity coefficient is, setting by setting: (318.15 K) 1.71 ± 0.11; (328.15 K) 1.66 ± 0.11; (338.15 K) 1.61 ± 0.11; (348.15 K) 1.57 ± 0.1; (358.15 K) 1.54 ± 0.1; (368.15 K) 1.51 ± 0.1.

In the case of `CCCOCCC` [dipropyl ether] + C[N+]1(CCCO)CCOCC1.N#C[N-]C#N, the activity coefficient by setting is: (308.15 K) 218 ± 15; (318.15 K) 202 ± 14; (328.15 K) 189 ± 13; (338.15 K) 176 ± 12; (348.15 K) 166 ± 11; (358.15 K) 157 ± 11. Also, the activity coefficient (368.15 K) was 148 ± 10.

In the case of `CCOC(C)=O` [ethyl acetate] + C[N+]1(CCCO)CCOCC1.N#C[N-]C#N, the activity coefficient by setting is: (318.15 K) 9.71 ± 0.66; (328.15 K) 9.78 ± 0.67; (338.15 K) 9.83 ± 0.67; (348.15 K) 9.91 ± 0.68; (358.15 K) 10 ± 0.7; (368.15 K) 10.1 ± 0.7.

Take `CO` [methanol] + C[n+]1ccn(CCCO)c1.N#CN=C=[N-]: the activity coefficient by setting is: (318.15 K) 0.63 ± 0.04; (328.15 K) 0.64 ± 0.04; (338.15 K) 0.654 ± 0.045; (348.15 K) 0.66 ± 0.05; (358.15 K) 0.679 ± 0.046; (368.15 K) 0.69 ± 0.05.

With `C#CCCCCC` [1-heptyne] + C[N+]1(CCCO)CCOCC1.N#C[N-]C#N, the activity coefficient by setting is: (308.15 K) 82.9 ± 5.7; (318.15 K) 79.8 ± 5.5; (328.15 K) 76.7 ± 5.3; (338.15 K) 74 ± 5.1; (348.15 K) 72 ± 4.9; (358.15 K) 69.8 ± 4.8. Besides, the activity coefficient (368.15 K) worked out at 68.1 ± 4.7.

As for `CC(C)CO` [2-methyl-1-propanol] + C[n+]1ccn(CCCO)c1.N#CN=C=[N-], the activity coefficient is, setting by setting: (318.15 K) 2.79 ± 0.19; (328.15 K) 2.72 ± 0.19; (338.15 K) 2.68 ± 0.18; (348.15 K) 2.64 ± 0.18; (358.15 K) 2.6 ± 0.18; (368.15 K) 2.58 ± 0.18.

As for `C#CCCCC` [1-hexyne] + C[n+]1ccn(CCCO)c1.N#CN=C=[N-], the activity coefficient runs as follows: (298.15 K) 18.8 ± 1.3; (308.15 K) 19.3 ± 1.3; (318.15 K) 19.6 ± 1.3; (328.15 K) 20 ± 1.4; (338.15 K) 20.3 ± 1.4; (348.15 K) 20.6 ± 1.4. Besides, under “358.15 K”, the activity coefficient turned out to be 21.4 ± 1.5.

Turning to `CCOC(C)=O` [ethyl acetate] + C[n+]1ccn(CCCO)c1.N#CN=C=[N-], the activity coefficient amounted to 5.72 ± 0.39 (318.15 K); 5.95 ± 0.41 (328.15 K); 6.18 ± 0.42 (338.15 K); 6.36 ± 0.43 (348.15 K); 6.61 ± 0.45 (358.15 K); 6.86 ± 0.47 (368.15 K).

Turning to `CCc1ccccc1` [ethylbenzene] + C[N+]1(CCCO)CCOCC1.N#C[N-]C#N, the activity coefficient by setting is: (318.15 K) 26.4 ± 1.8; (328.15 K) 26.3 ± 1.8; (338.15 K) 26.3 ± 1.8; (348.15 K) 26.2 ± 1.8; (358.15 K) 26.2 ± 1.8; (368.15 K) 26.2 ± 1.8.

For `CCCC(=O)OC` [methyl butanoate] + C[n+]1ccn(CCCO)c1.N#CN=C=[N-], the activity coefficient by setting is: (318.15 K) 9.03 ± 0.62; (328.15 K) 9.36 ± 0.64; (338.15 K) 9.67 ± 0.66; (348.15 K) 9.96 ± 0.68; (358.15 K) 10.3 ± 0.7; (368.15 K) 10.6 ± 0.7.

Regarding `CO` [methanol] + C[N+]1(CCCO)CCOCC1.N#C[N-]C#N, the activity coefficient (318.15 K) came to 0.753 ± 0.05; the activity coefficient (328.15 K) amounted to 0.763 ± 0.05; the activity coefficient (338.15 K) is 0.771 ± 0.05; the activity coefficient (348.15 K) was 0.778 ± 0.051; the activity coefficient (358.15 K) is 0.788 ± 0.051; the activity coefficient (368.15 K) was 0.791 ± 0.051.

Take `C1CCOC1` [tetrahydrofuran] + C[n+]1ccn(CCCO)c1.N#CN=C=[N-]: the activity coefficient reads like this: (318.15 K) 3.07 ± 0.21; (328.15 K) 3.19 ± 0.22; (338.15 K) 3.33 ± 0.23; (348.15 K) 3.44 ± 0.23; (358.15 K) 3.57 ± 0.24; (368.15 K) 3.67 ± 0.25.

For `c1ccncc1` [pyridine] + C[N+]1(CCCO)CCOCC1.N#C[N-]C#N, the activity coefficient runs as follows: (318.15 K) 1.71 ± 0.11; (328.15 K) 1.8 ± 0.12; (338.15 K) 1.89 ± 0.13; (348.15 K) 1.97 ± 0.13; (358.15 K) 2.06 ± 0.14; (368.15 K) 2.15 ± 0.15.

For `CCC(=O)CC` [pentan-3-one] + C[N+]1(CCCO)CCOCC1.N#C[N-]C#N, the activity coefficient reads like this: (318.15 K) 8.09 ± 0.55; (328.15 K) 8.2 ± 0.56; (338.15 K) 8.38 ± 0.57; (348.15 K) 8.52 ± 0.58; (358.15 K) 8.61 ± 0.59; (368.15 K) 8.75 ± 0.6.

Consider `COC(C)=O` [methyl ethanoate] + C[N+]1(CCCO)CCOCC1.N#C[N-]C#N, for which the activity coefficient is 4.31 ± 0.29 (318.15 K); 4.41 ± 0.3 (328.15 K); 4.54 ± 0.31 (338.15 K); 4.64 ± 0.32 (348.15 K); 4.77 ± 0.33 (358.15 K); 4.89 ± 0.33 (368.15 K).

Take `CCCCCCCCCC` [decane] + C[n+]1ccn(CCCO)c1.N#CN=C=[N-]: the activity coefficient runs as follows: (298.15 K) 1870 ± 130; (308.15 K) 1680 ± 120; (318.15 K) 1530 ± 110; (328.15 K) 1380 ± 95; (338.15 K) 1270 ± 88; (348.15 K) 1170 ± 81. Further, the activity coefficient (358.15 K) stood at 1070 ± 74.

With `CC#N` [acetonitrile] + C[N+]1(CCCO)CCOCC1.N#C[N-]C#N, the activity coefficient is, setting by setting: (318.15 K) 1.25 ± 0.08; (328.15 K) 1.29 ± 0.08; (338.15 K) 1.33 ± 0.09; (348.15 K) 1.37 ± 0.09; (358.15 K) 1.4 ± 0.09; (368.15 K) 1.45 ± 0.1.

With `C1CCCCC1` [cyclohexane] + C[N+]1(CCCO)CCOCC1.N#C[N-]C#N, the activity coefficient worked out at 381 ± 26 (308.15 K); 319 ± 22 (318.15 K); 260 ± 18 (328.15 K); 219 ± 15 (338.15 K); 184 ± 13 (348.15 K); 159 ± 11 (358.15 K). Moreover, the activity coefficient (368.15 K) worked out at 138 ± 9.

In the case of `C1COCCO1` [1,4-dioxane] + C[n+]1ccn(CCCO)c1.N#CN=C=[N-], the activity coefficient worked out at 1.73 ± 0.12 (318.15 K); 1.85 ± 0.12 (328.15 K); 1.98 ± 0.13 (338.15 K); 2.09 ± 0.14 (348.15 K); 2.23 ± 0.15 (358.15 K); 2.34 ± 0.16 (368.15 K).

For the compound `C#CCCCCCC` [1-octyne] + C[N+]1(CCCO)CCOCC1.N#C[N-]C#N, the activity coefficient was 151 ± 10 (308.15 K); 145 ± 10 (318.15 K); 138 ± 9 (328.15 K); 133 ± 9 (338.15 K); 128 ± 9 (348.15 K); 122 ± 8 (358.15 K). Besides, for the setting “368.15 K”, the activity coefficient was found to be 118 ± 8.

With `C=Cc1ccccc1` [styrene] + C[N+]1(CCCO)CCOCC1.N#C[N-]C#N, the activity coefficient is, setting by setting: (318.15 K) 9.96 ± 0.68; (328.15 K) 10.3 ± 0.7; (338.15 K) 10.5 ± 0.7; (348.15 K) 10.8 ± 0.7; (358.15 K) 11 ± 0.8; (368.15 K) 11.3 ± 0.8.

Regarding `CCCCCCC` [heptane] + C[N+]1(CCCO)CCOCC1.N#C[N-]C#N, the activity coefficient is 1540 ± 110 (298.15 K) and 1290 ± 89 (308.15 K).

With `Cc1ccc(C)cc1` [1,4-dimethylbenzene] + C[n+]1ccn(CCCO)c1.N#CN=C=[N-], the activity coefficient (318.15 K) turned out to be 13.5 ± 0.9; the activity coefficient (328.15 K) was determined as 13.9 ± 1; the activity coefficient (338.15 K) came out at 14.3 ± 1; the activity coefficient (348.15 K) was found to be 14.7 ± 1; the activity coefficient (358.15 K) stood at 15.1 ± 1; the activity coefficient (368.15 K) amounted to 15.5 ± 1.1.
